Data: US20100092497A1, “METHODS OF IMMUNE OR HAEMATOLOGICAL ENHANCEMENT, INHIBITING TUMOUR FORMATION OR GROWTH, AND TREATING OR PREVENTING CANCER” (priority 2006, published 2010)

Assays:
EL-4 target cells = test: Anti-tumour cytolytic activity of splenocytes (CTL assay); assay type: cell-based, mouse; details: Example 4; high dose vitamin D (45.2 mg/Kg) by itself or Fe-saturated Lf
Experimental: Splenocytes were harvested 28 days following tumour cell injection, as specified. They were incubated at 37° C. with EL-4 target cells in graded E:T ratios in 96-well round-bottom plates. After a 4-hour incubation, 50 μl of supernatant was collected, and lysis was measured using the Cyto Tox 96 Assay Kit (Promega, Madison, Wis., USA). Background controls for non-specific target and effector cell lysis were included. After background subtraction, percentage of cell lysis was calculated using the formula: 100×(experimental-spontaneous effector-spontaneous target/maximum target-spontaneous target).

[1] = daily for several years; cited from earlier work
[2] = tested on: EL-4 T cell thymic lymphoma; test: EL-4 tumour challenge in mice fed experimental diets (tumour growth, rejection, response to paclitaxel); assay type: in vivo, C57BL/6 mice; details: Example 1; control diet; paclitaxel 30 mg/Kg i.p. at tumours ~0.6 cm

Row | SMILES | increase in anti-tumour cytolytic activity of splenocytes, agent by itself (EL-4 target cells) [fold] | daily ingestion after which most cases of toxicity were reported [1] | tumour response to paclitaxel [2]
1 | C=C1CC[C@H](O)C/C1=C/C=C1\CCC[C@]2(C)[C@@H]([C@H](C)CCCC(C)C)CC[C@@H]12 [vitamin D, cholecalciferol, reference compound] | 1.9 | greater than 50,000 IU | –
2 | CC(=O)O[C@H]1C(=O)[C@@]2(C)[C@H]([C@H](OC(=O)c3ccccc3)[C@]3(O)C[C@H](OC(=O)[C@H](O)[C@@H](NC(=O)c4ccccc4)c4ccccc4)C(C)=C1C3(C)C)[C@]1(OC(C)=O)CO[C@@H]1C[C@@H]2O [paclitaxel, reference compound] | – | – | completely resistant
